Holding throughout (format): biochemical
One assay has as its target T1, WT CFTR (Homo sapiens, UniProt P13569).
T1 construct: expressed in transfected cells; host or cells: Xenopus laevis oocytes injected with cRNA transcribed from pGEMHE-CFTR
The assay can be described thus: Macroscopic current recording in excised inside-out patches from Xenopus laevis oocytes. The note with it: for EC50: 2 mM ATP, 25°C, read-out: K0.5 for current stimulation. The text has this: (§1) We reasoned that this circumstance might explain some of the puzzling features of the drug, such as CFTR channel inactivation observed in some cases ([Cholon et al., 2014]), as well as apparent irreversibility of drug effects ([Jih and Hwang, 2013]; [Lin et al., 2016]; [Yeh et al., 2015]; [Yeh et al., 2017]; [Wang et al., 2014]; [Wang et al., 2018]). To investigate stability and reversibility of Vx-770 effects in a concentration range that can be achieved in the human body during oral drug administration, we tested the effects of our 1x saturated Vx-770 solution and its dilutions in inside-out patches excised from Xenopus laevis oocytes expressing WT or mutant human CFTR channels.
(§2) Patch pipette solution contained (in mM): 136 NMDG-Cl, 2 MgCl2, 5 HEPES, pH = 7.4 with NMDG. Bath solution contained (in mM): 134 NMDG-Cl, 2 MgCl2, 5 HEPES, 0.5 EGTA, pH = 7.1 with NMDG. MgATP (2 mM) was added from a 400 mM aqueous stock solution (pH = 7.1 with NMDG). Before each experiment 300 nM catalytic subunit of PKA (Sigma-Aldrich Kft., Budapest, Hungary) was applied for ~1 min to phosphorylate CFTR channels. Vx-770 (Selleck Chemicals) was diluted into the bath solution either from a ‘1x saturated’ aqueous stock solution (see above, concentration ~62 nM), or from a commercially obtained 10 mM stock dissolved in DMSO (Selleck Chemicals). Following patch excision the patch pipette was moved into a flow chamber, and recordings were done under continuous superfusion of the cytosolic patch surface. Solution compositions were exchanged using computer-driven electronic valves (solution exchange time constant <50 ms). After each recording day perfusion tubings were extensively washed with distilled water. Although supersaturated solutions of Vx-770 were not employed here, any perfusion tubing that had ever been in contact with a given concentration of Vx-770 was subsequently used only for solutions that contained the same, or higher, concentrations of the drug. After every 5–6 experimental days the entire perfusion system was replaced. Currents were recorded at 25°C, at a membrane potential of −40 mV, digitized at 10 kHz, Gaussian-filtered at 2 kHz, and recorded to disk (Axopatch 200B, Digidata 1322A, Pclamp9 (Molecular Devices, RRID: SCR_011323)). For display purposes, currents are shown filtered at 10 Hz and sampled at 20 Hz, and expanded single-channel traces (Figure 2b, Figure 4d) are shown filtered at 50 Hz and sampled at 250 Hz.
(§3) Vx-770 was applied after currents elicited by 2 mM ATP had stabilized. To allow for full development of its potentiator effect, Vx-770 was superfused until the current reached steady state which, for low nanomolar Vx-770, required up to 5–6 min. After full stimulation, Vx-770 was washed off for at least 5 min to allow the current to decline to a post-drug steady state. Fractional current stimulation by Vx-770 (I/Icontrol) was calculated as the mean steady current in the presence of the drug, divided by the average of the pre- and post-drug mean steady currents. Dose response curves (Figure 3c,f) were least-squares fitted to the modified Hill equation I/Icontrol=(K0.5^n+(Imax/Icontrol)[Vx-770]^n)/(K0.5^n+[Vx-770]^n), with Imax/Icontrol, K0.5, and n as free parameters.
To obtain apparent deactivation rates, current decay time courses following Vx-770 removal were fitted by single exponentials using least squares, and deactivation rates defined as the inverse of the decay time constant (1/τoff; Figure 4c). To obtain apparent activation rates, current activation time courses upon Vx-770 addition were fitted to an empirical three-step kinetic scheme S1→S2→S3→S4. Compound states S1-S4 in this scheme are not interpreted as channel conformational states, but rather as states of the entire system (aqueous solution +patch membrane leaflets + channels), and could reflect various stages of drug distribution among those compartments. […]

The target in the next assay is T2, ΔF508 CFTR (Homo sapiens, UniProt P13569, DEL508-508).
T2 construct: expressed in transfected cells; host or cells: Xenopus laevis oocytes injected with cRNA transcribed from mutated pGEMHE-CFTR
T2 sequence (P13569 with tags, fused parts or gaps DEL508-508): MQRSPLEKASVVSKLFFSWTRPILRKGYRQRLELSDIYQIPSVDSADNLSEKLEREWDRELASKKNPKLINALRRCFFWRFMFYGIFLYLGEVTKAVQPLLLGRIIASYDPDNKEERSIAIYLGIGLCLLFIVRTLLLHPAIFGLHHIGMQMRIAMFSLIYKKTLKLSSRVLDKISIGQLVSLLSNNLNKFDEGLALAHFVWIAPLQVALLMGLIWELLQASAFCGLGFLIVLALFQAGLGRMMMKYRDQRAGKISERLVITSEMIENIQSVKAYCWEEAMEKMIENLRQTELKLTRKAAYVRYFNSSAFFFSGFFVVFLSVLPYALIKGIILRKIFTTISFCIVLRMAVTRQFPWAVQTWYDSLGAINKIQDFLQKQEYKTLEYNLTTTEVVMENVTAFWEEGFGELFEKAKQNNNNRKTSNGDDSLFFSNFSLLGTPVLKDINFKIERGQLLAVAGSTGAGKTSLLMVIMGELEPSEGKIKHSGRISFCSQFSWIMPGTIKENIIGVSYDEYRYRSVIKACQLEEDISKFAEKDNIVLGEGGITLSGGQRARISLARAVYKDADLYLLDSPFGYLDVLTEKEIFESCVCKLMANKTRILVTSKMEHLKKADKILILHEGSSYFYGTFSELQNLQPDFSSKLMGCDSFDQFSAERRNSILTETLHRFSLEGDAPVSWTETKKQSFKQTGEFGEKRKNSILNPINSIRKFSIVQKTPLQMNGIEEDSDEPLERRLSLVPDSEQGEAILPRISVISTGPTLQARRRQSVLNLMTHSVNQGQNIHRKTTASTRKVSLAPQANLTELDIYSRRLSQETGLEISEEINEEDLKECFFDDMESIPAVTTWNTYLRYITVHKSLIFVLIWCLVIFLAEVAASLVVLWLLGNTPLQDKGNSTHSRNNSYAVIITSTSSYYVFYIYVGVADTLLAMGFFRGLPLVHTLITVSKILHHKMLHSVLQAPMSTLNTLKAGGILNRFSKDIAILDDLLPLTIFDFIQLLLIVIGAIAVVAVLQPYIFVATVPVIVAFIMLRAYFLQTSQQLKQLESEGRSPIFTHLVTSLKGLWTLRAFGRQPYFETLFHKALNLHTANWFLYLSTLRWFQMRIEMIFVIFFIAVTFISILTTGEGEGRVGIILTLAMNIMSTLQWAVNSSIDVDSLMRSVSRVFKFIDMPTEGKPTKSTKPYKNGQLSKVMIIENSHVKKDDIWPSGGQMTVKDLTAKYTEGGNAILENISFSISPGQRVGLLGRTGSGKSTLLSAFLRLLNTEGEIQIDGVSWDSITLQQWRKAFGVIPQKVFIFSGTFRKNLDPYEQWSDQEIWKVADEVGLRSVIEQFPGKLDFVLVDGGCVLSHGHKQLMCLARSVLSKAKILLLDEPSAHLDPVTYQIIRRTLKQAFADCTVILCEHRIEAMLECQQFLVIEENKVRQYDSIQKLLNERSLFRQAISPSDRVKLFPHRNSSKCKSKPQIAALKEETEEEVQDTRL
Kind of assay: Quasi-macroscopic current recording in excised inside-out patches from Xenopus laevis oocytes.
From the text: as §1
(§4) The G551D and ΔF508 mutations were introduced into pGEMHE-CFTR using the QuikChange Kit (Agilent, Santa Clara, CA, USA), and confirmed by automated sequencing; cDNA was purified (HiSpeed Plasmid Midi Kit, Qiagen), transcribed in vitro (mMessage T7 Kit, ThermoFisher Scientific, Waltham, MA USA) and cRNA stored at −80°C.
as §2, §3
(§5) To obtain apparent deactivation rates, current decay time courses following Vx-770 removal were fitted by single exponentials using least squares, and deactivation rates defined as the inverse of the decay time constant (1/τoff; Figure 4c). To obtain apparent activation rates, current activation time courses upon Vx-770 addition were fitted to an empirical three-step kinetic scheme S1→S2→S3→S4. […]

Another assay deals with T3, G551D CFTR (Homo sapiens, UniProt P13569, G551D).
T3 construct: expressed in transfected cells; host or cells: Xenopus laevis oocytes injected with cRNA transcribed from mutated pGEMHE-CFTR
T3 sequence (P13569 whole entry G551D): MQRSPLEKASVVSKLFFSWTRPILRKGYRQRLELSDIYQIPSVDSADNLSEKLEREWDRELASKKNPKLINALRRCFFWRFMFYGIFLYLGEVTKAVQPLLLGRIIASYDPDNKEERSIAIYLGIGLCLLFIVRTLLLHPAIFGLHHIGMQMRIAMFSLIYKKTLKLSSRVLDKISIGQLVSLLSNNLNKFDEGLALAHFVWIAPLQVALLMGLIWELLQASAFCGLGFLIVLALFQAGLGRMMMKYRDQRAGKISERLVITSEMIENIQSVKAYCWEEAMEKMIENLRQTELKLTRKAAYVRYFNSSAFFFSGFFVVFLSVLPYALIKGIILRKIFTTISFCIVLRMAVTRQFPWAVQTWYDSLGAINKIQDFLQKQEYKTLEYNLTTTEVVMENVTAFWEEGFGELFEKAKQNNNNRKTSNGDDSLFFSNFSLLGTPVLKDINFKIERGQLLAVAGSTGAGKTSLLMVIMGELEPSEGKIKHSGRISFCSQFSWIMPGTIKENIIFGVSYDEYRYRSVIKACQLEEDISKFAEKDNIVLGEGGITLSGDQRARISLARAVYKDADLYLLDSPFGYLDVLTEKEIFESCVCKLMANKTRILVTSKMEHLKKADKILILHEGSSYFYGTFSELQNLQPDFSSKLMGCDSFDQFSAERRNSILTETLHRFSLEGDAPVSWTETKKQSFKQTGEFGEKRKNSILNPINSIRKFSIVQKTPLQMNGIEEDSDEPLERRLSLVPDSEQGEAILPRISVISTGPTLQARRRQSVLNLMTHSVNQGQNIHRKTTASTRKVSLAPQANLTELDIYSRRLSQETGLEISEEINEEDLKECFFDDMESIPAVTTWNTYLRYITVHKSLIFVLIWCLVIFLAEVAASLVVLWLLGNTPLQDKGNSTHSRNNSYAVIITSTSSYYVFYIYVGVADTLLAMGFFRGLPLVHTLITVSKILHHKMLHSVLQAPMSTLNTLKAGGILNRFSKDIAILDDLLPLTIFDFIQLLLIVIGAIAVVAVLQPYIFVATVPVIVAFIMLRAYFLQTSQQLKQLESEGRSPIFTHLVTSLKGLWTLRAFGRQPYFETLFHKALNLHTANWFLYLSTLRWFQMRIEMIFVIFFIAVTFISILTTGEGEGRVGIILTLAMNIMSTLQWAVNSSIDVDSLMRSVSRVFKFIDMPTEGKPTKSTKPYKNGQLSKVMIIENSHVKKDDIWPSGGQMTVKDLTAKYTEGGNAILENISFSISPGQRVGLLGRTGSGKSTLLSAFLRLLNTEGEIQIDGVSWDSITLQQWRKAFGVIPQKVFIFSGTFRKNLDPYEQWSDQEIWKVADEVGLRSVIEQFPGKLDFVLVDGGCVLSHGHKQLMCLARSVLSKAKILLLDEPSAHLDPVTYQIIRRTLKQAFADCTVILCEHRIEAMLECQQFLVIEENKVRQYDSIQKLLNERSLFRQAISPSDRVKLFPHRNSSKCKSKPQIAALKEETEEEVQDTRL
Described as above.
From the text: as §1, §4, §2, §3, §5

[1] abbreviates: diluted from 10 mM DMSO-based stock.
The mark [2] stands for this setting: diluted from 1x saturated aqueous stock, 2 mM ATP, read-out: K0.5 for current stimulation.

Where “and” joins values, the source holds several entries; their conditions need not be identical. Equal entries are not always repeated. Where two headings read alike, the source gives them in different places.

T1 sequence (P13569 whole entry): as the sequence (P13569 whole entry G551D) above, with D551G counted along it

Consider `CC(C)(C)c1cc(C(C)(C)C)c(NC(=O)c2c[nH]c3ccccc3c2=O)cc1O` [Vx-770, ivacaftor], for which, on WT CFTR (0.01x saturated Vx-770 (assigned by b20: slower at low concentration), Figure 4a), the “apparent activation time constant τ*” value turned out to be 155 s. For the same molecule, the current stimulation at WT CFTR (1x saturated (~62 nM) Vx-770, 2 mM ATP, prephosphorylated channels, -40 mV) was ~ 4 fold. The “time constant τ of current decline following drug removal” value was 145 s on WT CFTR (after 1x saturated (~62 nM) Vx-770, Figure 2a) and ~ 2 min at WT CFTR (after 1x saturated Vx-770). Moreover, the Hill coefficient (in general, a measure of the steepness of the concentration-response curve) on WT CFTR (setting [1]) amounted to 1.32±0.47; on WT CFTR (diluted from 1x saturated aqueous stock), 1.31±0.65; on ΔF508 CFTR it was 1.12±0.07; at G551D CFTR, 1.22±0.10. Also, the EC50 on WT CFTR (setting [1]) is 0.49 ± 0.15 nM; on WT CFTR (diluted from 1x saturated aqueous stock, assuming 62 nM), 0.47 ± 0.12 nM; on ΔF508 CFTR (setting [2]), 1.53 nM and ~1.5 nM; on G551D CFTR (setting [2]), 1.42 nM and ~1.5 nM. The “delay of onset of current stimulation” value at WT CFTR (subnanomolar/low nanomolar aqueous drug concentrations) is reported as ≤ 1 min. Also, the “reversibility of Vx-770 effects” value on WT CFTR (upon removal of 1x saturated Vx-770) is “full reversibility”. The “apparent K0.5 lower (affinity higher) than previously reported” value on WT CFTR (versus ~300 nM reported) was ~ 600 fold and 600 fold. In addition, the “reversibility of current stimulation” value on ΔF508 CFTR and on G551D CFTR was “fully reversible” in each case. For the same molecule, the “time constant of reversal” value on ΔF508 CFTR and at G551D CFTR was ~ 2 min each time. The “potency higher than previously reported” value at G551D CFTR is ~ 200 fold.

The values above are taken from PMC6594753, “Cystic fibrosis drug ivacaftor stimulates CFTR channels at picomolar concentrations” (eLife, 2019).
